Patent US20220401514A1, “ANTIMICROBIAL, BACTERIOPHAGE-DERIVED POLYPEPTIDES AND THEIR USE AGAINST GRAM-NEGATIVE AND ACID-FAST BACTERIA” (CONTRAFECT CORPORATION, priority 2019, published 2022)
Where two headings read alike, the source gives them in different places.

Tests used:
[1] = test system: M. kansasii Hauduroy ATCC 12478; test: 45 hr MIC against M. kansasii (NTM), Mueller Hinton broth; type: cell-based, Mycobacterium kansasii
[2] = test system: P. aeruginosa strain CFS-1292; test: MIC at pH 6, pH 7 and pH 8; type: cell-based, Pseudomonas aeruginosa
Procedure: The Chp peptides were further evaluated at varying pH levels. The MIC values were determined at pH 6, pH 7, and pH 8 for 18 different Chp peptides against P. aeruginosa strain CFS-1292. […]

[3] = test system: Mycobacterium tuberculosis strains
Procedure: MIC values for various Chp peptides were determined using the CLSI method for broth microdilution in 96-well microtiter format.
Next, MIC values for various Chp peptides were determined using the CLSI method above for broth microdilution in 96-well microtiter format for two different Mycobacterium tuberculosis strains. The MIC was determined as explained above for the NTM strains.

[4] = Stability assessment in 100% CAA; type: in vitro ADME; parameters: unit not given beside the values
Procedure: Stability was assessed after incubation in 100% human serum at 37° C. after 10 minutes, 1 hour, and 2 hours.
Stability assessment was further conducted in 100% CAA and rabbit serum using the same methodology discussed above.

[5] = test system: M. intracellulare; test: 45 hr MIC against M. intracellulare (NTM); type: cell-based, Mycobacterium intracellulare; settings: M. intracellulare (Cuttino and McCabe) Runyon ATCC 13950
[6] = test system: P. aeruginosa strain CFS-1292; test: MIC in presence and absence of NaCl (140 mM); type: cell-based, Pseudomonas aeruginosa; settings: for Fold change in MIC: CAA + 140 mM NaCl versus CAA without added NaCl; for MIC, CAA + 140 mM NaCl / MIC, CAA (no added NaCl): P. aeruginosa CFS-1292
Procedure: Certain Chp peptides were evaluated over a range of physiological NaCl levels and pH values, and were further evaluated for activity in the presence of various divalent cations.

[7] = test system: carbapenem-resistant P. aeruginosa clinical isolate CFS-1292; test: MIC by modified CLSI broth microdilution against P. aeruginosa CFS-1292 (CAA, CAA + human serum); type: cell-based, Pseudomonas aeruginosa; settings: for MIC (μg/mL) against CFS-1292 in 100% CAA (1st run/2nd run): 1st run or single value
[8] = test system: P. aeruginosa strain CFS-1292; test: MIC in presence of mouse, rat, rabbit and human serum ([…] each); type: cell-based, Pseudomonas aeruginosa; settings: P. aeruginosa CFS-1292
Procedure: The activity of several Chp peptides against P. aeruginosa strain CFS-1292 in animal serum was evaluated. […] Rat, mouse, and rabbit serum were all obtained from pooled gender samples.

[9] = test system: Pseudomonas aeruginosa; test: microbe, parasite or virus in culture; type: cell-based; settings: P. aeruginosa isolates (n per peptide in table)
[10] = test system: M. fortuitum; test: 45 hr MIC against M. fortuitum (NTM); type: cell-based, Mycobacterium fortuitum; settings: M. fortuitum subsp. Fortuitum da Costa Cruz. ATCC 6841
[11] = test system: M. smegmatis; test: 45 hr MIC against M. smegmatis (NTM), Mueller Hinton broth; type: cell-based, Mycobacterium smegmatis
[12] = test system: Acinetobacter baumannii; test: microbe, parasite or virus in culture; type: cell-based; settings: for MIC50 / MIC100 / MIC Range: A. baumannii isolates (n per peptide in table); for MIC: Acinetobacter baumannii ATCC BAA 747, CAA supplemented with human serum
[13] = test system: Pseudomonas aeruginosa, Escherichia coli, Enterobacter cloacae, Klebsiella pneumoniae, and Acinetobacter baumannii; test: MIC against a range of Gram-negative organisms (statements covering several species); type: cell-based; settings: Tables 40-44 isolates
Procedure: (§1) Determination of Minimal Inhibitory Concentrations (MIC).
(§2) Additional MIC testing was performed for several peptides against the ESKAPE pathogens Escherichia coli, Enterobacter cloacae, Klebsiella pneumoniae, and Acinetobacter baumannii, in CAA supplemented with human serum (Table D).

[14] = test system: carbapenem-resistant bacterial strains; test: organism not typed; type: cell-based
Description: as §1

[15] = test system: M. scrofulaceum; test: 45 hr MIC against M. scrofulaceum (NTM); type: cell-based, Mycobacterium scrofulaceum; settings: M. scrofulaceum Prissick and Masson ATCC 19981
[16] = test system: Klebsiella pneumoniae; type: cell-based; settings: for MIC50 / MIC100 / MIC Range: K. pneumoniae isolates (n per peptide in table); for MIC: Klebsiella pneumoniae HM-44, CAA supplemented with human serum
Procedure: as §1, §2

[17] = test system: P. aeruginosa strain CFS-1292; test: MIC in presence of divalent cations (calcium chloride, magnesium sulfate); type: cell-based, Pseudomonas aeruginosa
Procedure: Next, Chp peptides were evaluated in the presence of different divalent cations. […]; (2) in the presence of 2 mM calcium chloride alone; (3) in the presence of 1 mM magnesium sulfate alone; and (4) in the presence of both 2 mM calcium chloride and 1 mM magnesium sulfate. […]

[18] = test system: M. avium; test: 45 hr MIC against M. avium (NTM); type: cell-based, Mycobacterium avium; settings: M. avium Chester ATCC 700898
[19] = test system: Enterobacter cloacae; test: microbe, parasite or virus in culture; type: cell-based; settings: for MIC50 / MIC100 / MIC Range: E. cloacae isolates (n per peptide in table); for MIC: Enterobacter cloacae ATCC 13047, CAA supplemented with human serum
Method in brief: (§3)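 CAA + human serum as test medium; MIC read as lowest peptide concentration inhibiting growth.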

[20] = test system: Escherichia coli; test: microbe, parasite or virus in culture; type: cell-based; settings: for MIC50 / MIC100 / MIC Range: E. coli isolates (n per peptide in table); for MIC: Escherichia coli ATCC 25922, CAA supplemented with human serum
Method in brief: as §3

[21] = test system: S. maltophilia; test: MIC against S. maltophilia isolates; type: cell-based, Stenotrophomonas maltophilia
Method in brief: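 Chp peptides were tested on a set of S. maltophilia isolates (n = isolates per species), with minimal inhibitory concentrations given in μg/mL.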

[22] = test system: P. aeruginosa strain CFS-1292; test: MIC in presence and absence of Survanta pulmonary surfactant; type: cell-based, Pseudomonas aeruginosa
[23] = Mycobacterium tuberculosis (Zopf) Lehmann and Neumann ATCC 25177
[24] = Mycobacterium tuberculosis (Zopf) Lehmann and Neumann ATCC 35817
[25] = carbapenem-resistant isolate PA19
[26] = carbapenem-resistant isolate PA20
[27] = carbapenem-resistant isolate PA21
[28] = carbapenem-resistant isolate PA22
[29] = carbapenem-resistant isolate PA23
[30] = carbapenem-resistant isolate PA24
[31] = carbapenem-resistant isolate WLC-452
[32] = S. maltophilia isolates (n per peptide in table)
[33] = CAA media + 0.19 mg/mL Survanta

MARSRRRMSKRSSRRSFRKYAKTHKKNFKARSMRGGIRL [Ecp3]
>8 mg/L: MIC100 [21, 32]
good activity: activity (good = MIC100 of ≤4) against all of P. aeruginosa, K. pneumoniae, A. baumannii, E. cloacae, and E. coli [13]
0.5 mg/L: MIC, CAA (no added NaCl) [6] | MIC CAA [8] | MIC Human Serum [8] | MIC100 [12] | MIC [14, 25] | MIC [16] | MIC50 [19] | MIC [22, 33] | MIC ([22]; CAA media + […] Survanta) | MIC ([22]; CAA media alone)
>32 mg/L: MIC BALB/C Mouse Serum [8]
8 mg/L: MIC [3, 24] | 45 hr MIC [5] | MIC New Zealand White Rabbit Serum [8] | MIC Sprague Dawley Rat Serum [8] | 45 hr MIC ([11]; M. smegmatis MC^2 155, Run #2)
4 mg/L: MIC100 [9] | 45 hr MIC ([11]; M. smegmatis MC^2 155, Run #1) | MIC [14, 26] | MIC [14, 27] | MIC [14, 28] | MIC100 [19] | MIC [19] | MIC50 [21, 32]
0.5: MIC (100% CAA) [4]
0.25 mg/L: MIC50 [12]
4: Fold change in MIC [6]
2 mg/L: 45 hr MIC [1] | MIC ([2]; pH 6) | MIC ([2]; pH 7) | MIC ([2]; pH 8) | MIC, CAA + 140 mM NaCl [6] | MIC50 [9] | 45 hr MIC [10] | MIC [12] | MIC [14, 29] | MIC [14, 30] | 45 hr MIC [15] | MIC100 [16] | MIC ([17]; CAA media + 1 mM MgSO4) | MIC ([17]; CAA media + 2 mM CaCl2) | MIC ([17]; CAA media + + 1 mM MgSO4) | MIC100 [20]
16 mg/L: MIC [3, 23]
0.125 to 0.5 mg/L: MIC Range [12]
1 mg/L: MIC ([2]; CAA media (pH 7)) | MIC [14, 31] | MIC50 [16] | MIC ([17]; CAA media alone) | 45 hr MIC [18] | MIC50 [20] | MIC [20]
0.5 to 4 mg/L: MIC Range [9] | MIC Range [16]
0.25 to 4 mg/L: MIC Range [19]
0.5 µg/mL: MIC (μg/mL) against CFS-1292 in 100% CAA (1st run/2nd run) [7] | MIC (μg/mL) against CFS-1292 in CAA + […] human serum [7]
0.125 to 8 mg/L: MIC Range [20]

MRRRRLSRRTSRRFFRKGLKVRRRNLRARPMRGGFRI [Unp2]
0.125 mg/L: MIC [16]
0.5 to 2 mg/L: MIC Range [9]
0.25: MIC (100% CAA) [4]
4: Fold change in MIC [6]
good activity: activity (good = MIC100 of ≤4) against all of P. aeruginosa, K. pneumoniae, A. baumannii, E. cloacae, and E. coli [13]
2 mg/L: 45 hr MIC [1] | MIC, CAA + 140 mM NaCl [6] | 45 hr MIC [10] | 45 hr MIC ([11]; M. smegmatis MC^2 155, Run #1) | MIC [14, 27]
8 mg/L: MIC Sprague Dawley Rat Serum [8]
0.5 mg/L: MIC ([2]; CAA media (pH 7)) | MIC ([2]; pH 6) | MIC ([2]; pH 7) | MIC ([2]; pH 8) | MIC, CAA (no added NaCl) [6] | MIC CAA [8] | MIC Human Serum [8] | MIC50 [12] | MIC100 [12] | MIC [14, 25] | MIC [14, 31] | MIC50 [16] | MIC ([17]; CAA media + + 1 mM MgSO4) | 45 hr MIC [18] | MIC100 [19] | MIC50 [21, 32] | MIC [22, 33] | MIC ([22]; CAA media + […] Survanta) | MIC ([22]; CAA media alone)
0.125 to 1 mg/L: MIC Range [20]
1 mg/L: 45 hr MIC [5] | MIC50 [9] | MIC100 [9] | MIC [12] | MIC [14, 26] | MIC [14, 28] | MIC [14, 29] | MIC [14, 30] | MIC100 [16] | MIC100 [20] | MIC100 [21, 32]
0.25 to 1 mg/L: MIC Range [12] | MIC Range [16]
active: activity against S. maltophilia ([21]; Table 45 isolates)
0.25 to 2 mg/L: MIC Range [19] | MIC Range [21, 32]
0.25 mg/L: MIC ([17]; CAA media + 1 mM MgSO4) | MIC ([17]; CAA media + 2 mM CaCl2) | MIC ([17]; CAA media alone) | MIC50 [19] | MIC50 [20] | MIC [20]
>32 mg/L: MIC BALB/C Mouse Serum [8]
4 mg/L: MIC [3, 24] | MIC New Zealand White Rabbit Serum [8] | 45 hr MIC ([11]; M. smegmatis MC^2 155, Run #2) | 45 hr MIC [15]
0.5 µg/mL: MIC (μg/mL) against CFS-1292 in 100% CAA (1st run/2nd run) [7] | MIC (μg/mL) against CFS-1292 in CAA + […] human serum [7]
16 mg/L: MIC [3, 23] | MIC [19]
